One data set relates to HP12. In words: UV melting of PNA:PNA duplex with primary probe HP12. In kind it is physicochemical. As to conditions: UV 260 nm, 20-95 °C at 1 °C/min, 5 μM each probe, 10 mM phosphate buffer, 10 mM KCl, pH 7.4. How it is done:
(§1) The melting temperatures of secondary probes after duplex formation with primary probes were also measured by monitoring the absorbance at 260 nm as a function of temperature (see Figure S23). All probe pairs had melting temperatures well above 37 °C (body temperature) and ranged from 51 °C for the HP6:HP19 pair with 6 complementary bases to 82 °C for the previously studied HP15:HP18 pair with 15 complementary bases (see Figure 3B and Table 2). […] This secondary structure is typically adopted by antiparallel and L-amino acid-modified PNA–PNA duplexes at neutral pH.[49]
(§2) Figure S23: Normalized temperature melting profiles from 20–95°C for different primary and secondary probe pairs. UV melting curves at 260 nm. (A) HP15 (15-mer) toward secondary 15-, 12- and 9-mers. (B) HP12 (12-mer) toward secondary 12-, 9-, 8-, 7- and 6-mers. (C) HP9 (9-mer) toward secondary 9-, 8-, 7- and 6-mers. (D) HP6 (6-mer) toward secondary 6-mer.
(§3) Concentrations of duplexes in A–D are 5 μM in 10 mM […] with 10 mM KCl at pH 7.4.
(§4) (also on this page, place not known: Fraction melted Fraction meltedFraction melted Fraction melted) […]
(§5) Supplementary Material and methods […]
(§6) Biophysical characterization of PNA:PNA duplexes using CD Spectroscopy and […]
(§7) Circular dichroism (CD) and UV melts of PNA:PNA duplexes were measured on a CD spectrometer (Applied Photophysics, Leatherhead, UK) with Peltier temperature control and an external temperature probe. RP-HPLC purified and lyophilized PNA probes were dissolved in 10 mM phosphate buffer with 10 mM KCl at pH 7.4. Samples contained both primary and complementary secondary PNA probes at a final concentration of 5 µM for each probe. These samples were initially heated to 95°C for five minutes, allowed to cool to room temperature, and then transferred to a quartz cuvette with a 1.0 cm path length. A temperature probe was inserted into the solution through the cuvette's rubber cap. […]
(§8) from 20°C to 95°C with a 1°C/min temperature gradient. Simultaneously, the UV absorbance at 260 nm was recorded as a function of temperature. Fraction melted data was calculated […]
(§9) Fraction melted = 1 ― UVds― UVss , where UVss and UVds are the UV absorbances at 95°C and 20°C, respectively. The melting temperature (Tm) was determined as the maximum of the first derivative of the melting curve and was computed using the Global 3 analysis software (Applied Photophysics, […]
(§10) CD spectra in the range of 200–300 nm were recorded for all hybridized PNA:PNA pairs at 20°C before and after the UV melting experiments. All CD spectra were baseline subtracted and presented as an average of five scans.

A further data set has as its system HP9. Description: UV melting of PNA:PNA duplex with primary probe HP9. In kind it is physicochemical. The conditions noted are these: UV 260 nm, 20-95 °C at 1 °C/min, 5 μM each probe, 10 mM phosphate buffer, 10 mM KCl, pH 7.4. How it is done: as §1, §2, §3, §4, §5, §6, §7, §8, §9, §10
In data set [1] the target is Z-HP15. Description: SPR off-rate screening (single-cycle kinetics), immobilized Z-HP15. In kind it is binding. The conditions noted are these: primary probe HP15 (immobilized Z-HP15), 25 °C, PBS-T pH 7.4, 120 nM HP16/HP20 or 362 nM HP21/HP19, dissociation 150 min, 1:1 model, duplicates. How it is done:
(§11) The stability of new pretargeting probe combinations was assessed using SPR, and duplex melting temperatures were measured with UV–vis spectroscopy. In SPR, a high concentration of the secondary probe was injected over immobilized primary agents, and the dissociation of the hybridized complexes was monitored over 150 min (see Figures 3A, S22, and Table 2).
(§12) We utilized SPR on a Biacore T200 instrument (Cytiva) to examine how secondary PNA probes (6-mer HP19, 7-mer HP21, 8-mer HP20, and 9-mer HP16) bind to primary agents. These experiments were conducted using dextran-coated CM5 sensor chips and PBS-T buffer at pH 7.4. The ligands were immobilized through a standard EDC/NHS coupling method, and the chip surface was sealed with ethanolamine. A reference surface with no primary agent was also included.
(§13) For ranking the off-rate (kd) of the secondary probes, we employed single-cycle kinetics (SCK) at 25 °C with a flow rate of 50 μL/min. […] Secondary PNA probes were injected at various concentrations, and dissociation was monitored for 10,000 s. To regenerate the chip surface, we used two 30 s injections of 10 mM glycine-HCl, pH 1.5.
(§14) All SPR experiments were performed in duplicate, and data analysis was conducted using the Biacore T200 Evaluation software version 2.0 with a 1:1 binding model.
(§15) Figure S22: Representative SPR sensorgrams of the dissociation phase of HP16 (9-mer), HP20 (8-mer), HP21 (7-mer) and HP19 […]
(§16) After injection with the secondary probe
(§17) (120 nM of HP16 and HP20 or 362 nM of HP21 and HP19) the dissociation of the formed complex was followed for 150 minutes. All experiments were done in duplicates, and the data presented is double-referenced (reference channel and buffer injection are subtracted).
(§18) (1 picture or pasted object on this page, not shown here)

In data set [2] the target is Z-HP9. Description: SPR off-rate screening (single-cycle kinetics), immobilized Z-HP9. In kind it is binding. The conditions noted are these: primary probe HP9 (immobilized Z-HP9), 25 °C, PBS-T pH 7.4, 120 nM HP16/HP20 or 362 nM HP21/HP19, dissociation 150 min, 1:1 model, duplicates. The protocol:
as §11, §12, §13, §14, §15, §16, §17, §18

In a further data set the target is Z-HP12. In words: SPR off-rate screening (single-cycle kinetics), immobilized Z-HP12. In kind it is binding. The conditions noted are these: primary probe HP12 (immobilized Z-HP12), 25 °C, PBS-T pH 7.4, 120 nM HP16/HP20 or 362 nM HP21/HP19, dissociation 150 min, 1:1 model, duplicates. How it is done:
as §11, §12, §13, §14, §15, §16, §17, §18

A further data set relates to HP6. In words: UV melting of PNA:PNA duplex with primary probe HP6. The conditions noted are these: UV 260 nm, 20-95 °C at 1 °C/min, 5 μM each probe, 10 mM phosphate buffer, 10 mM KCl, pH 7.4. In kind it is physicochemical. The protocol: as §1
Figure S23: Normalized temperature melting profiles from 20–95°C for different primary and secondary probe pairs. UV melting curves at 260 nm. […]
(§19) Circular dichroism (CD) and UV melts of PNA:PNA duplexes were measured on a CD spectrometer (Applied Photophysics, Leatherhead, UK) with Peltier temperature control and an external temperature probe. […]
as §8, §9

Data set [3] has as its system Z-HP9. In words: Multicycle kinetic SPR, immobilized Z-HP9. In kind it is binding. As to conditions: MCK SPR. How it is done: as §12
Association and dissociation times were set at 700 and 1800 s, respectively, with regeneration accomplished through a 30 s injection of 10 mM glycine-HCl, pH 1.5.
as §14

A short description of data set [4]: Solubility of secondary probes in labeling buffer. In kind it is physicochemical. The conditions noted are these: 0.2 M NH4Ac; for increase in solubility compared to the 15-mer HP18 / maximum soluble concentration: pH 5.5, 25 °C; for maximum soluble concentration: heated 95 °C 5 min, 18-h static incubation, centrifugation, UV 260 nm of supernatant, highest concentration with at least 95% still soluble, duplicates. The protocol: However, as we moved to shorter PNA oligomers, solubility saw a substantial, nonlinear increase. […] For example, at 25 °C, the maximum soluble concentration of HP17 (12-mer) was around 6 μM. […]
pH 5.5 at 25°C. Dilution series of HPLC-purified and lyophilized secondary probes (1, 3, 6, 9, 13, 26, 39, 52 and 65 µM) for […]
samples were heated at 95°C for five minutes and concentration of the soluble fraction was determined by UV absorption at 260 nm before (grey bars), and after (black bars) an 18-hour static incubation at 25°C. Duplicates were prepared of all samples and the data is presented as the mean ± SD. The maximum soluble concentration of each probe, indicated in panels A-E as a dotted line, was defined as the highest concentration at which at least 95% is still in the soluble fraction after an 18-hour incubation at 25°C. PNA-aggregates are temperature-labile, as exemplified in panel C for 82 µM HP17.
After an 18-hour incubation 25°C, 6 µM is left in the soluble fraction (left black bar) but heating the sample at 95 °C for five minutes completely redissolved HP17 aggregates into solution (right black bar).
as §18
Supplementary Material and methods
Solubility of secondary probes
HPLC-purified and freeze-dried secondary probes were resuspended in 10 mM NaAc, pH 3.5-3.6 and freeze-dried in smaller aliquots. The secondary probes were re-dissolved in 0.2 M NH4Ac, pH 5.5, and the samples were heated at 95 °C for five minutes to ensure complete dissolvement. Dilution series of secondary probes (1, 3, 6, 9, 13, 26, 39, 52 and 65 μM) for […]
NH4Ac, pH 5.5. The samples were then left for an 18-hour static incubation at 25 C, before being centrifugated at 21,100 x g for 5 minutes on a standard benchtop centrifuge (Eppendorf). The supernatants were transferred to fresh 1.5 mL Eppendorf-tubes, and the […]

Data set [5] has as its target Z-HP15. The conditions noted are these: SPR, primary probe HP15; cited from earlier work. The source says: Table 2 Dissociation Rate Constants (kds) and Melting Temperatures (Tms) of the PNA Probe Duplexes ^a | column: kd (s^–1)
The next data set has as its system HP15. Description: UV melting of PNA:PNA duplex with primary probe HP15. In kind it is physicochemical. The conditions noted are these: UV 260 nm, 20-95 °C at 1 °C/min, 5 μM each probe, 10 mM phosphate buffer, 10 mM KCl, pH 7.4. The protocol:
as §1, §2, §3, §4, §5, §6, §19, §8, §9
CD spectra in the range of 200–300 nm were recorded for all hybridized PNA:PNA pairs at 20°C before and after the UV melting experiments. […]

Where two headings read alike, the source gives them in different places.

As to “DOTA-AEEA-SS-accagg-EEY-NH2 [HP19, 6-mer secondary PNA probe with DOTA]”, the values for the Tm in the data set on HP12, in the data set on HP9 and in the data set on HP6 were 56 °C, 55 °C and 51 °C, respectively. Moreover, the kd at Z-HP15 [1] is on record as 5.0 × 10^–4 s^–1; on Z-HP9 [2], 2.8 × 10^–4 s^–1; on Z-HP12, 6.2 × 10^–4 s^–1.

For “DOTA-AEEA-SS-caccagg-EEY-NH2 [HP21, 7-mer secondary PNA probe with DOTA]”, the Tm in the data set on HP12 and with HP9 was 60 °C throughout. Besides, the kd is recorded as 5.5 × 10^–5 s^–1 at Z-HP15 [1], 9.2 × 10^–5 s^–1 on Z-HP9 [2] and 4.5 × 10^–5 s^–1 on Z-HP12.

As to “DOTA-AEEA-SS-acaccagg-EEY-NH2 [HP20, 8-mer secondary PNA probe with DOTA]”, the Tm in the data set on HP12 amounted to 66 °C; with HP9 it was 64 °C. In addition, the ka in the data set on Z-HP9 [3] (primary probe HP9 (Z-HP9 immobilized), 25 °C, 1.4-70 nM, 1:1 model, duplicates) is listed as 1.2 × 10^5 M^–1 s^–1; with Z-HP9 [3] (primary probe HP9, 37 °C), 2.2 × 10^5 M^–1 s^–1. Also, the Kd stood at 0.55 nM at Z-HP9 [3] (primary probe HP9, 25 °C) and 0.79 nM on Z-HP9 [3] (primary probe HP9, 37 °C). The kd is reported as 6.6 × 10^–5 s^–1 on Z-HP9 [3] (primary probe HP9, 25 °C); 1.7 × 10^–4 s^–1 at Z-HP9 [3] (primary probe HP9, 37 °C); 1.4 × 10^–5 s^–1 at Z-HP15 [1]; 2.6 × 10^–5 s^–1 on Z-HP9 [2]; 1.6 × 10^–5 s^–1 on Z-HP12. Besides, in data set [4], the “increase in solubility compared to the 15-mer HP18” value is around 100 fold. In data set [4], the maximum soluble concentration came to 370 µM.

In the case of “DOTA-AEEA-SS-atcaacaccagg-EEY-NH2 [HP17, 12-mer secondary PNA probe with DOTA]”, the Tm in the data set on HP12 is 75 °C. For the same substance, the kd at Z-HP15 [5] was <10^–5 ^b s^–1. The Tm in the data set on HP15 was determined as 78 °C. For the same substance, in [4], the “increase in solubility compared to the 15-mer HP18” value is listed as “approximately 2 fold” and the maximum soluble concentration came to 6 µM. The “solubility after 5 min at 95 °C” value in data set [4] (pH 5.5, 82 µM sample reheated at 95 °C for 5 min after 18 h at 25 °C, UV 260 nm) is on record as “exceeded 82 μM”.

On to “DOTA-AEEA-SS-atcatcaacaccagg-EEY-NH2 [HP18, 15-mer secondary PNA probe with DOTA]”, for which, at Z-HP15 [5], the kd was <10^–5 ^b s^–1. Also, the Tm in the data set with HP15 stood at 82 °C. This substance also registered a maximum soluble concentration in [4] of 3 µM.

As a reminder, the Tm is the temperature at which the thermal transition is half complete. The term Kd denotes the constant that tells how readily two partners part at equilibrium.

The record behind these values is article PMC11091976, “Shorter Peptide Nucleic Acid Probes Improve Affibody-Mediated Peptide Nucleic Acid-Based Pretargeting” (ACS Pharmacology & Translational Science, 2024).
